Assay results reported in patent US10428083B2, “Heterocyclylmethyl-thienouracile as antagonists of the adenosine-A2B-receptor” (BAYER PHARMA AKTIENGESELLSCHAFT, priority 2015, dated 2019).

What follows are compounds tested against human adenosine A2b receptor (Homo sapiens (Human), UniProt P29275) (assay: Cellular in vitro reporter gene test for A2b receptor activity (CHO-K1, CRE-luciferase, NECA stimulation)). Details: recombinant CHO-K1 cell line, CRE-luciferase reporter, antagonism of EC50 concentration of NECA; in some cases means of several determinations, rounded to two significant figures; read-out: A2b receptor IC50.
Sequence of human adenosine A2b receptor (P29275 whole entry): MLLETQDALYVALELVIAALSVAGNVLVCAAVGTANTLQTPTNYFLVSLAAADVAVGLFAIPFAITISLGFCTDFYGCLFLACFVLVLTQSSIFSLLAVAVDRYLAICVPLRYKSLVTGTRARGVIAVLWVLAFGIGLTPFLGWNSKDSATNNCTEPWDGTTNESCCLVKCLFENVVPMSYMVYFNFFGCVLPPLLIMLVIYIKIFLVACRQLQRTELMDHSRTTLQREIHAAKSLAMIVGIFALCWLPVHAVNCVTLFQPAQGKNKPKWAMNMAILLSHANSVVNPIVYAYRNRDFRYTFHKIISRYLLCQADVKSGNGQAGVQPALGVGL
Format: cell-based
How it was run: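 CHO-K1 cells with CRE-driven luciferase; antagonists co-incubated with NECA at its EC50, determined in a pre-experiment on each test day. Luciferase read by luminescence 3 h after NECA addition.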
Compound `Cc1c(Cn2[nH]ccc2=O)sc2c1c(=O)n(CC(F)(F)F)c(=O)n2CC1CCCO1` (single isomer, unassigned) [Example 286, 5-Methyl-6-[(5-oxo-2,5-dihydro-1H-pyrazol-1-yl)methyl]-1-(tetrahydrofuran-2-ylmethyl)-3-(2,2,2-trifluoroethyl)thieno[2,3-d]pyrimidine-2,4(1H,3H)-dione] has an IC50 of 0.22 µM.
`COCCn1c(=O)c2c(C)c(Cn3[nH]ccc3=O)sc2n(CC2CCCO2)c1=O` (single isomer, unassigned) [Example 290, 3-(2-Methoxyethyl)-5-methyl-6-[(5-oxo-2,5-dihydro-1H-pyrazol-1-yl)methyl]-1-(tetrahydrofuran-2-ylmethyl)thieno[2,3-d]pyrimidine-2,4(1H,3H)-dione] gave an IC50 of 0.4 µM.
`COCCn1c(=O)c2c(C)c(Cn3[nH]ccc3=O)sc2n(CC2CCCO2)c1=O` (single isomer, unassigned) [Example 291, 3-(2-Methoxyethyl)-5-methyl-6-[(5-oxo-2,5-dihydro-1H-pyrazol-1-yl)methyl]-1-(tetrahydrofuran-2-ylmethyl)thieno[2,3-d]pyrimidine-2,4(1H,3H)-dione] was tested, and the IC50 was 0.19 µM.
Compound `Cc1c(CN2CCNC2=S)sc2c1c(=O)n(CC(F)(F)F)c(=O)n2CC1CCCO1` (single isomer, unassigned) [Example 299, 5-Methyl-1-(tetrahydrofuran-2-ylmethyl)-6-[(2-thioxoimidazolidin-1-yl)methyl]-3-(2,2,2-trifluoroethyl)thieno[2,3-d]pyrimidine-2,4(1H,3H)-dione] has an IC50 of 0.0056 µM.
With `Cc1c(CN2CCNC2=S)sc2c1c(=O)n(CC(F)(F)F)c(=O)n2CC1CCCO1` (single isomer, unassigned) [Example 300, 5-Methyl-1-(tetrahydrofuran-2-ylmethyl)-6-[(2-thioxoimidazolidin-1-yl)methyl]-3-(2,2,2-trifluoroethyl)thieno[2,3-d]pyrimidine-2,4(1H,3H)-dione] the IC50 was 0.014 µM.
Compound `COCCn1c(=O)c2c(C)c(CN3CCNC3=O)sc2n(CC2CCCO2)c1=O` (single isomer, unassigned) [Example 324, 3-(2-Methoxyethyl)-5-methyl-6-[(2-oxoimidazolidin-1-yl)methyl]-1-(tetrahydrofuran-2-ylmethyl)thieno[2,3-d]pyrimidine-2,4(1H,3H)-dione] has an IC50 of 0.11 µM.
`COCCn1c(=O)c2c(C)c(CN3CCNC3=O)sc2n(CC2CCCO2)c1=O` (single isomer, unassigned) [Example 325, 3-(2-Methoxyethyl)-5-methyl-6-[(2-oxoimidazolidin-1-yl)methyl]-1-(tetrahydrofuran-2-ylmethyl)thieno[2,3-d]pyrimidine-2,4(1H,3H)-dione] showed an IC50 of 0.065 µM.
`COCCn1c(=O)n(C(C)COC)c(=O)c2c(C)c(CN3CCNC3=O)sc21` (single isomer, unassigned) [Example 330, 1-(2-Methoxyethyl)-3-(1-methoxypropan-2-yl)-5-methyl-6-[(2-oxoimidazolidin-1-yl)methyl]thieno[2,3-d]pyrimidine-2,4(1H,3H)-dione] was tested, and the IC50 was 0.22 µM.
Work on `COCCn1c(=O)n(C(C)COC)c(=O)c2c(C)c(CN3CCNC3=O)sc21` (single isomer, unassigned) [Example 331, 1-(2-Methoxyethyl)-3-(1-methoxypropan-2-yl)-5-methyl-6-[(2-oxoimidazolidin-1-yl)methyl]thieno[2,3-d]pyrimidine-2,4(1H,3H)-dione] yielded an IC50 of 0.061 µM.
`COCCn1c(=O)n(CC2CCCO2)c(=O)c2c(C)c(CN3CCNC3=O)sc21` (single isomer, unassigned) [Example 333, 1-(2-Methoxyethyl)-5-methyl-6-[(2-oxoimidazolidin-1-yl)methyl]-3-(tetrahydrofuran-2-ylmethyl)thieno[2,3-d]pyrimidine-2,4(1H,3H)-dione] gave an IC50 of 0.11 µM.
Compound `COCCn1c(=O)n(CC2CCCO2)c(=O)c2c(C)c(CN3CCNC3=O)sc21` (single isomer, unassigned) [Example 334, 1-(2-Methoxyethyl)-5-methyl-6-[(2-oxoimidazolidin-1-yl)methyl]-3-(tetrahydrofuran-2-ylmethyl)thieno[2,3-d]pyrimidine-2,4(1H,3H)-dione] has an IC50 of 0.12 µM.
`Cc1c(Cn2cc[nH]c2=O)sc2c1c(=O)n(CC(F)(F)F)c(=O)n2CC1CCCO1` (single isomer, unassigned) [Example 342, 5-Methyl-6-[(2-oxo-2,3-dihydro-1H-imidazol-1-yl)methyl]-1-(tetrahydrofuran-2-ylmethyl)-3-(2,2,2-trifluoroethyl)thieno[2,3-d]pyrimidine-2,4(1H,3H)-dione] was tested, and the IC50 was 0.013 µM.
In the case of `Cc1c(Cn2cc[nH]c2=O)sc2c1c(=O)n(CC(F)(F)F)c(=O)n2CC1CCCO1` (single isomer, unassigned) [Example 343, 5-Methyl-6-[(2-oxo-2,3-dihydro-1H-imidazol-1-yl)methyl]-1-(tetrahydrofuran-2-ylmethyl)-3-(2,2,2-trifluoroethyl)thieno[2,3-d]pyrimidine-2,4(1H,3H)-dione], the IC50 is reported as 0.025 µM.
For `COCCn1c(=O)c2c(C)c(Cn3cc[nH]c3=O)sc2n(CC2CCCO2)c1=O` (single isomer, unassigned) [Example 347, 3-(2-Methoxyethyl)-5-methyl-6-[(2-oxo-2,3-dihydro-1H-imidazol-1-yl)methyl]-1-(tetrahydrofuran-2-ylmethyl)thieno[2,3-d]pyrimidine-2,4(1H,3H)-dione], the IC50 was 0.056 µM.
For `COCCn1c(=O)c2c(C)c(Cn3cc[nH]c3=O)sc2n(CC2CCCO2)c1=O` (single isomer, unassigned) [Example 348, 3-(2-Methoxyethyl)-5-methyl-6-[(2-oxo-2,3-dihydro-1H-imidazol-1-yl)methyl]-1-(tetrahydrofuran-2-ylmethyl)thieno[2,3-d]pyrimidine-2,4(1H,3H)-dione], the IC50 was 0.048 µM.
With `Cc1c(CN2CCNC2=NC#N)sc2c1c(=O)n(C(C)C)c(=O)n2CC1CCCO1` (single isomer, unassigned) [Example 356, [1-{[3-Isopropyl-5-methyl-2,4-dioxo-1-(tetrahydrofuran-2-ylmethyl)-1,2,3,4-tetrahydrothieno[2,3-d]pyrimidin-6-yl]methyl}imidazolidin-2-ylidene]cyanamide] the IC50 was 0.0051 µM.
In the case of `Cc1c(CN2CCNC2=NC#N)sc2c1c(=O)n(C(C)C)c(=O)n2CC1CCCO1` (single isomer, unassigned) [Example 357, [1-{[3-Isopropyl-5-methyl-2,4-dioxo-1-(tetrahydrofuran-2-ylmethyl)-1,2,3,4-tetrahydrothieno[2,3-d]pyrimidin-6-yl]methyl}imidazolidin-2-ylidene]cyanamide], the IC50 is reported as 0.032 µM.
With `Cc1c(CN2CCNC2=NC#N)sc2c1c(=O)n(CC(F)(F)F)c(=O)n2CC1CCCO1` (single isomer, unassigned) [Example 360, [1-{[5-Methyl-2,4-dioxo-1-(tetrahydrofuran-2-ylmethyl)-3-(2,2,2-trifluoroethyl)-1,2,3,4-tetrahydrothieno[2,3-d]pyrimidin-6-yl]methyl}imidazolidin-2-ylidene]cyanamide] the IC50 was 0.01 µM.
In the case of `Cc1c(CN2CCNC2=NC#N)sc2c1c(=O)n(CC(F)(F)F)c(=O)n2CC1CCCO1` (single isomer, unassigned) [Example 361, [1-{[5-Methyl-2,4-dioxo-1-(tetrahydrofuran-2-ylmethyl)-3-(2,2,2-trifluoroethyl)-1,2,3,4-tetrahydrothieno[2,3-d]pyrimidin-6-yl]methyl}imidazolidin-2-ylidene]cyanamide], the IC50 is reported as 0.013 µM.
Compound `COCCn1c(=O)c2c(C)c(CN3CCNC3=NC#N)sc2n(CC2CCO2)c1=O` (single isomer, unassigned) [Example 365, [1-{[3-Methoxyethyl-5-methyl-1-(oxetan-2-ylmethyl)-2,4-dioxo-1,2,3,4-tetrahydrothieno[2,3-d]pyrimidin-6-yl]methyl}imidazolidin-2-ylidene]cyanamide] has an IC50 of 0.11 µM.
`COCCn1c(=O)c2c(C)c(CN3CCNC3=NC#N)sc2n(CC2CCO2)c1=O` (single isomer, unassigned) [Example 366, [1-{[3-Methoxyethyl-5-methyl-1-(oxetan-2-ylmethyl)-2,4-dioxo-1,2,3,4-tetrahydrothieno[2,3-d]pyrimidin-6-yl]methyl}imidazolidin-2-ylidene]cyanamide] was tested, and the IC50 was 0.04 µM.
`COCCn1c(=O)c2c(C)c(CN3CCNC3=NC#N)sc2n(CC2CCCO2)c1=O` (single isomer, unassigned) [Example 368, [1-{[3-(2-Methoxyethyl)-5-methyl-2,4-dioxo-1-(tetrahydrofuran-2-ylmethyl)-1,2,3,4-tetrahydrothieno[2,3-d]pyrimidin-6-yl]methyl}imidazolidin-2-ylidene]cyanamide] gave an IC50 of 0.082 µM.
For `COCCn1c(=O)c2c(C)c(CN3CCNC3=NC#N)sc2n(CC2CCCO2)c1=O` (single isomer, unassigned) [Example 369, [1-{[3-(2-Methoxyethyl)-5-methyl-2,4-dioxo-1-(tetrahydrofuran-2-ylmethyl)-1,2,3,4-tetrahydrothieno[2,3-d]pyrimidin-6-yl]methyl}imidazolidin-2-ylidene]cyanamide], the IC50 was 0.033 µM.
Work on `CCn1c(=O)c2c(C)c(CN3CCNC3=NC(=O)OC)sc2n(CC2CCO2)c1=O` (single isomer, unassigned) [Example 372, Methyl [1-{[3-ethyl-5-methyl-1-(oxetan-2-ylmethyl)-2,4-dioxo-1,2,3,4-tetrahydrothieno[2,3-d]pyrimidin-6-yl]methyl}imidazolidin-2-ylidene]carbamate] yielded an IC50 of 0.027 µM.
`CCn1c(=O)c2c(C)c(CN3CCNC3=NC(=O)OC)sc2n(CC2CCO2)c1=O` (single isomer, unassigned) [Example 373, Methyl [1-{[3-ethyl-5-methyl-1-(oxetan-2-ylmethyl)-2,4-dioxo-1,2,3,4-tetrahydrothieno[2,3-d]pyrimidin-6-yl]methyl}imidazolidin-2-ylidene]carbamate] was tested, and the IC50 was 0.0059 µM.
